The nature of data set [1]: Oxidation with sodium hexachloroiridate(IV). The following applies: in 15 minutes.
Data set [2] is described as follows: Photooxidation of single-stranded oligonucleotide, irradiation at 366 nm in the presence of riboflavin. The format is physicochemical. The following applies: single-stranded ODN, irradiated at 366 nm in the presence of riboflavin. The source says: The inventors conducted photooxidization of the oligonucleotide (7) containing benzoyl-^edaG (^Bz-edaG), for example, 5′-d(TATAAT^Bz-edaGTAATAT)-3′.
The single-stranded oligonucleotide (ODN) 5′-d(TATAAT^edaGTAATAT)-3′ was irradiated at 366 nm in the presence of riboflavin.

Data set [3] can be described thus: Measurement of oxidation potential (E1/2). The format is physicochemical. The following applies: vs. NHE; 100 mM LiClO4 solution, room temperature. The procedure: The oxidation potential (E1/2) of benzoyl-^edaG was measured in 100 mM LiClO4 solution at room temperature by ALS electrochemical analyzer model 660-A. The scanning speed was 100 mV/sec. A glass carbon electrode was used as a sample electrode; a platinum wire as a counter electrode; and SCE as a reference electrode.

Here are results for three substances from patent US7563886B2, “Nucleoside releasing functional unit through oxidation and process for producing oligonucleotide containing thereof” (Japan Science and Technology Agency, priority 2003, dated 2009).

With 5′-d(TATAAT^Bz-edaGTAATAT)-3′, the “decomposed at the site of the modified edaG” value in data set [1] was 57%. Moreover, the t1/2 of decomposition in data set [2] worked out at 6.2 min.

5′-d(TATAAT^edaGTAATAT)-3′: in data set [2], the t1/2 of decomposition amounted to 6.2 min.

As to benzoyl-^edaG [^Bz-edaG], in data set [3], the “oxidation potential (E1/2)” value came to 0.59 V.
